This passage reports IC50 results from patent US20220298115A1, “SMALL MOLECULE INHIBITORS OF ACETYL COENZYME A SYNTHETASE SHORT CHAIN 2 (ACSS2)” (Curadev Pharma Pvt. Ltd., priority 2019, published 2022).

Where only a bound is given, the exact number is not on record here.

One experiment has as its target T1, human ACSS2 (Homo sapiens, UniProt Q9NR19).
T1 construct: The cytosolic fraction of BT474 cells was used as a source of the ACSS2 enzyme; endogenous in cells; host or cells: BT474 cells (cytosolic fraction)
Briefly: ACSS2 enzyme assay (acetyl-CoA formation, LC-MS/MS). The class given is biochemical. The settings on record: cytosolic fraction of BT474 cells as ACSS2 source; 100 μM acetate, CoA and ATP; 2 h at 25° C.; read-out: Enzyme Activity (IC50 range). The essentials:
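Enzyme source was BT474 cytosolic fraction (100 ng), preincubated 5 min with compound in 25 mM Tris-HCl pH7.4, 1 mM MgCl2, 1 mM DTT, 0.05% Tween20, 1% DMSO. Reaction started with 100 μM each of acetate, CoA and ATP, 2 h at 25 °C, stopped with TCA; acetyl-CoA quantified by LC-MS/MS.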

Experiment [1] concerns [14C] acetate incorporation in macromolecules, BT474 cells. In words: Cell based [14C] acetate incorporation assay. Particulars: Homo sapiens, BT-474, 3 h at 37° C., read-out: Cellular Activity (IC50 range). The essentials: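 BT474 cells (4×10^4/well, plated overnight) were preincubated with compound for 10 min at 37°C in HBSS. They were then given 0.1 μCi [14C]acetate plus 10 μM unlabelled acetate (both in the added acetate solution) for 3 h at 37°C, 5% CO2. Label incorporated into macromolecules was harvested onto PEI-treated filters and counted by scintillation.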

T1 sequence (Q9NR19 whole entry): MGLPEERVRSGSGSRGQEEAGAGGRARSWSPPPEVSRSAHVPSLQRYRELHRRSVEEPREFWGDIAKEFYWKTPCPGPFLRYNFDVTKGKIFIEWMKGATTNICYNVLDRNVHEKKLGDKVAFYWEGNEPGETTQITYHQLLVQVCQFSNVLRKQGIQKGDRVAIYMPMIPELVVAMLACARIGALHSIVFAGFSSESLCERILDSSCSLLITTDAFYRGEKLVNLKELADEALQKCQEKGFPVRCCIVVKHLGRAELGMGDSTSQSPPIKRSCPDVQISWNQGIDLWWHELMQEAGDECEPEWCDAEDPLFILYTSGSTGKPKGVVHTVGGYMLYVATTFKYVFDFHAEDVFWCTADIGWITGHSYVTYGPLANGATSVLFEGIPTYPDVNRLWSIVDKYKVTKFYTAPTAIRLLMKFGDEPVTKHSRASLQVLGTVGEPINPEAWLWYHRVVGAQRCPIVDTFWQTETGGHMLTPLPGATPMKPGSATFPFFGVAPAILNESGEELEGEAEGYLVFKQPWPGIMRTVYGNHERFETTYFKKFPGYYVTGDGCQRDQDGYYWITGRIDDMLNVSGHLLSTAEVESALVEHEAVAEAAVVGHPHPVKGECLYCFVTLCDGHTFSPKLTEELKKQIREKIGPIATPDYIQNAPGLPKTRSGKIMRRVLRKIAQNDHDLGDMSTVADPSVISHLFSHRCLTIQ

For `CCC(O)CCC(=O)Nc1ccc2nc(-c3ccccc3)c(-c3ccccc3)cc2c1` (centres unmarked) [Example 127, N-(2,3-diphenyl-quinolin-6-yl)-4-hydroxy-hexanamide], the IC50 (at human ACSS2; in experiment [1]) was under 100 nM throughout.
With `CCC(O)CNC(=O)Nc1ccc2nc(C3CCCCC3)c(-c3ccccc3F)cc2c1` (centres unmarked) [Example 39, 1-(2-cyclohexyl-3-(2-fluorophenyl)quinolin-6-yl)-3-(2-hydroxybutyl) urea], the IC50 was over 10000 nM on human ACSS2 and at most 10000 nM in experiment [1].
`COCCNC(=O)Nc1ccc2nc(C)c(-c3ccccc3F)cc2c1` [Example 116, 1-(3-(2-fluorophenyl)-2-methylquinolin-6-yl)-3-(2-methoxyethyl) urea]: the figures for the IC50 (on human ACSS2; in experiment [1]) were at most 1000 nM and under 100 nM, respectively.
The matching figures for `CC[C@H](O)CNC(=O)Nc1ccc2nc(C)c(-c3ccccc3)cc2c1` [Example 89, (S)-1-(2-hydroxybutyl)-3-(2-methyl-3-phenylquinolin-6-yl)urea]: at most 1000 nM and at most 1000 nM.
The matching figures for `CCC(O)CNC(=O)Nc1ccc2nc(-c3ccccc3F)c(-c3ccccc3)cc2c1` (centres unmarked) [Example 8, 1-(2-(2-fluorophenyl)-3-phenylquinolin-6-yl)-3-(2-hydroxybutyl) urea]: under 100 nM and under 100 nM.
For `CCC(F)(F)CNC(=O)Nc1ccc2nc(-c3ccccc3)c(-c3ccccc3F)cc2c1` [Example 45, 1-(2,2-Difluorobutyl)-3-(3-(2-fluorophenyl)-2-phenylquinolin-6-yl)urea], the IC50 (on human ACSS2; in experiment [1]) was under 100 nM throughout.
On to `CC[C@@H](O)CNC(=O)Nc1ccc2nc(-c3ccccc3)c(C)c(C(=O)Nc3ccn(C)n3)c2c1` [Example 115, (R)-6-(3-(2-Hydroxybutyl)ureido)-3-methyl-N-(1-methyl-1H-pyrazol-3-yl)-2-phenylquinoline-4-carboxamide], for which the concentration for half-maximal inhibition (IC50) on human ACSS2 was under 100 nM; in experiment [1], at most 1000 nM.
As for `CCC(O)CNC(=O)Nc1ccc2nc(-c3ccccc3)c(-c3ccccc3)c(-c3ncco3)c2c1` (centres unmarked) [Example 97, 1-(2-hydroxybutyl)-3-(4-(oxazol-2-yl)-2,3-diphenylquinolin-6-yl)urea], the 50% inhibitory concentration (IC50) (at human ACSS2; in experiment [1]) was under 100 nM throughout.
For `CCC(O)CNC(=O)Nc1ccc2nc(-c3ccccc3)c(-c3ccccc3F)cc2c1` (centres unmarked) [Example 7, 1-(3-(2-fluorophenyl)-2-phenylquinolin-6-yl)-3-(2-hydroxybutyl) urea], the half-inhibitory concentration (IC50) (at human ACSS2; in experiment [1]) was under 100 nM throughout.
With `CCCCNC(=O)Nc1ccc2nc(-c3ccccc3F)c(-c3ccccc3F)cc2c1` [Example 14, 1-(2,3-bis(2-fluorophenyl)quinolin-6-yl)-3-butylurea], the 50% inhibitory concentration (IC50) (on human ACSS2; in experiment [1]) was under 100 nM each time.
For the compound `CCC(=O)CCC(=O)Nc1ccc2nc(-c3ccccc3)c(-c3ccccc3)cc2c1` [Example 125, N-(2,3-diphenyl-quinolin-6-yl)-4-oxohexan-amide], the half-inhibitory concentration (IC50) (at human ACSS2; in experiment [1]) was under 100 nM throughout.
As for `CC[C@@H](O)CNC(=O)Nc1ccc2nc(-c3ccccc3)c(-c3ccccc3)cc2c1` [Example 2, (R)-1-(2,3-diphenylquinolin-6-yl)-3-(2-hydroxybutyl) urea], the IC50 (at human ACSS2; in experiment [1]) was under 100 nM each time.
Regarding `CCC(O)CNC(=O)Nc1ccc2nc(-c3cccc(C(C)=O)c3)c(-c3cccc(C(C)=O)c3)cc2c1` (centres unmarked) [Example 21, 1-(2,3-bis(3-acetylphenyl)quinolin-6-yl)-3-(2-hydroxybutyl) urea], the 50% inhibitory concentration (IC50) (on human ACSS2; in experiment [1]) was at most 10000 nM in each case.
As to `CCC(O)CNC(=O)Nc1ccc2nc(C)c(-c3ccccc3)cc2c1C` (centres unmarked) [Example 85, 1-(2,5-dimethyl-3-phenylquinolin-6-yl)-3-(2-hydroxybutyl) urea], the IC50 (on human ACSS2; in experiment [1]) was under 100 nM throughout.
In the case of `CCC(O)CNC(=O)Nc1ccc2nc(-c3ccccc3)c(-c3ccccc3)c(C(=O)NC)c2c1` (centres unmarked) [Example 62, 6-(3-(2-hydroxybutyl)ureido)-N-methyl-2,3-diphenylquino-line-4-carboxamide], the IC50 (at human ACSS2; in experiment [1]) was under 100 nM in each case.
As to `CCC(F)(F)CNC(=O)Nc1ccc2nc(C)c(-c3ccccc3F)cc2c1` [Example 110, 1-(2,2-difluorobutyl)-3-(3-(2-fluorophenyl)-2-methylquinolin-6-yl)urea], the half-maximal inhibitory concentration (IC50) (on human ACSS2; in experiment [1]) was under 100 nM each time.
With `CCC(=O)CCC(=O)Nc1ccc2nc(-c3ccccc3F)c(-c3ccccc3)cc2c1` [Example 123, N-(2-(2-fluorophenyl)-3-phenyl-quinolin-6-yl)-4-oxohexan-amide], the IC50 (at human ACSS2; in experiment [1]) was under 100 nM each time.
As for `CCC(O)CNC(=O)Nc1ccc2nc(-c3ccccc3)c(-c3ccccc3)c(NS(C)(=O)=O)c2c1` (centres unmarked) [Example 94, N-(6-(3-(2-Hydroxybutyl)ureido)-2,3-diphenylquinolin-4-yl)methanesulfonamide], the IC50 (at human ACSS2; in experiment [1]) was under 100 nM each time.
Take `CCC(O)CNC(=O)Nc1ccc2nc(-c3ccccc3OC)c(-c3ccccc3F)cc2c1` (centres unmarked) [Example 18, 1-(3-(2-fluorophenyl)-2-(2-methoxyphenyl)quinolin-6-yl)-3-(2-hydroxybutyl) urea]: the IC50 (at human ACSS2; in experiment [1]) was under 100 nM in each case.
As for `CCC(O)CNC(=O)Nc1ccc2nc(-c3cccc(F)c3)c(-c3cccc(F)c3)cc2c1` (centres unmarked) [Example 25, 1-(2,3-bis(3-fluorophenyl)quinolin-6-yl)-3-(2-hydroxybutyl) urea], the 50% inhibitory concentration (IC50) (at human ACSS2; in experiment [1]) was at most 1000 nM each time.
In the case of `COCCNC(=O)Nc1ccc2nc(C)c(-c3ccccc3)cc2c1` [Example 78, 1-(2-methoxyethyl)-3-(2-methyl-3-phenylquinolin-6-yl)urea], the IC50 (on human ACSS2; in experiment [1]) was at most 1000 nM in each case.
As to `O=C(Nc1ccc2nc(-c3ccccc3)c(-c3ccccc3)cc2c1)NC1CCCCC1` [Example 131, 1-cyclohexyl-3-(2,3-diphenylquinolin-6-yl)urea], the IC50 (at human ACSS2; in experiment [1]) was at most 1000 nM each time.
Regarding `CCC(O)CNC(=O)Nc1ccc2nc(-c3ccccc3N(C)C)c(-c3ccccc3F)cc2c1` (centres unmarked) [Example 33, 1-(2-(2-(dimethylamino)phenyl)-3-(2-fluorophenyl)quinolin-6-yl)-3-(2-hydroxybutyl) urea], the half-maximal inhibitory concentration (IC50) (at human ACSS2; in experiment [1]) was under 100 nM in each case.
Consider `CC[C@@H](O)CNC(=O)Nc1ccc2nc(-c3ccccc3F)c(-c3ccccc3F)cc2c1` [Example 20, (R)-1-(2,3-Bis(2-fluorophenyl)quinolin-6-yl)-3-(2-hydroxybutyl)urea], for which the concentration for half-maximal inhibition (IC50) (on human ACSS2; in experiment [1]) was under 100 nM throughout.
In the case of `CCC(O)CNC(=O)Nc1ccc2nc(-c3ccccc3)c(-c3ccccc3)cc2c1` (centres unmarked) [Example 1, 1-(2,3-diphenylquinolin-6-yl)-3-(2-hydroxybutyl) urea], the IC50 (on human ACSS2; in experiment [1]) was under 100 nM each time.
Take `CCC(O)CNC(=O)Nc1ccc2nc(C)c(-c3ccccc3C)cc2c1` (centres unmarked) [Example 80, 1-(2-hydroxybutyl)-3-(2-methyl-3-(o-tolyl)quinolin-6-yl)urea]: the IC50 (at human ACSS2; in experiment [1]) was under 100 nM each time.
Regarding `CCC(O)CNC(=O)Nc1ccc2nc(-c3cccnc3)c(-c3ccccc3F)cc2c1` (centres unmarked) [Example 31, 1-(3-(2-fluorophenyl)-2-(pyridin-3-yl)quinolin-6-yl)-3-(2-hydroxybutyl) urea], the IC50 (on human ACSS2; in experiment [1]) was under 100 nM each time.
For `CN1CCN(C(=O)Nc2ccc3nc(-c4ccccc4)c(-c4ccccc4)cc3c2)CC1` [Example 132, N-(2,3-diphenylquinolin-6-yl)-4-methylpiperazine-1-carboxamide], the 50% inhibitory concentration (IC50) on human ACSS2 was at most 10000 nM; in experiment [1] it was over 10000 nM.
In the case of `CCC(O)CNC(=O)Nc1ccc2nc(-c3cccnc3O)c(-c3cccnc3O)cc2c1` (centres unmarked) [Example 42, 1-(2,3-bis(2-hydroxypyridin-3-yl)quinolin-6-yl)-3-(2-hydroxybutyl) urea], the half-maximal inhibitory concentration (IC50) (at human ACSS2; in experiment [1]) was over 10000 nM in each case.
As to `O=C(Nc1ccc2nc(-c3ccccc3)c(-c3ccccc3)cc2c1)NC1(CO)CCCC1` [Example 143, 1-(2,3-diphenylquinolin-6-yl)-3-(1-(hydroxymethyl)cyclopentyl) urea], the 50% inhibitory concentration (IC50) is over 10000 nM on human ACSS2 and at most 10000 nM in experiment [1].
Consider `CC[C@@H](O)CNC(=O)Nc1ccc2nc(-c3ccccc3)c(-c3ccccc3F)cc2c1` [Example 15, (R)-1-(3-(2-Fluorophenyl)-2-phenylquinolin-6-yl)-3-(2-hydroxybutyl)urea], for which the half-inhibitory concentration (IC50) (at human ACSS2; in experiment [1]) was under 100 nM throughout.
As for `CC[C@H](O)CNC(=O)Nc1ccc2nc(-c3ccccc3F)c(-c3ccccc3F)cc2c1` [Example 28, (S)-1-(2,3-bis(2-fluorophenyl)quinolin-6-yl)-3-(2-hydroxybutyl) urea], the half-inhibitory concentration (IC50) (at human ACSS2; in experiment [1]) was under 100 nM in each case.
For `CCCCC(F)(F)C(=O)Nc1ccc2nc(-c3ccccc3)c(-c3ccccc3)cc2c1` [Example 122, N-(2,3-diphenyl-quinolin-6-yl)-2,2-difluoro-hexanamide], the 50% inhibitory concentration (IC50) at human ACSS2 was at most 10000 nM; in experiment [1] it was over 10000 nM.
With `CC[C@@H](O)CNC(=O)Nc1ccc2nc(-c3ccccc3)c(-c3ccccc3)c(C(N)=O)c2c1` [Example 57, (R)-6-(3-(2-hydroxybutyl)ureido)-2,3-diphenylquino-line-4-carboxamide], the half-inhibitory concentration (IC50) (on human ACSS2; in experiment [1]) was under 100 nM each time.
